Consider four compounds from paper PMC6154694, “Absorption, Metabolic Stability, and Pharmacokinetics of Ginger Phytochemicals” (Molecules : A Journal of Synthetic Chemistry and Natural …, 2017).

Data set [1] is described as follows: Solubility and stability in simulated gastric fluid (SGF). In kind it is in vitro ADME. Conditions: pH 1.2, 37 °C, n = 2. How it is done:
(§1) SGF and SIF were prepared as per USP method. Briefly, SGF was prepared by adding 2 g of sodium chloride and 3.2 g of pepsin with water and pH was adjusted to 1.2 ± 0.1 using hydrochloric acid (7 mL) and volume made up to 1 L. SIF was prepared by dissolving 6.8 g monobasic potassium phosphate and 10 g pancreatin in Milli-Q water (Millipore, Billerica, MA, USA). pH was adjusted to 6.8 ± 0.1 with sodium hydroxide solution and volume was made upto 1 L. Reactions were initiated by spiking DMSO stock solutions of GE phenolics 10 μL into 1990 μL of SGF and SIF incubated at 37 °C for 10 min. Samples (200 μL) were withdrawn at 0, 15, 30, and 60 min for SGF and at 0, 30, 60, and 120 min for SIF and quenched with 200 μL acetonitrile containing internal standard.

Data set [2] can be described thus: Solubility and stability in simulated intestinal fluid (SIF). The data set is classed as in vitro ADME. As to conditions: pH 6.8, 37 °C, n = 2. How it is done: as §1
Data set [3] in a line: Liver microsomal stability, rat. The data set is classed as in vitro ADME, IGS Sprague-Dawley rat. As to conditions: protein 0.5 mg/mL; for remaining at 0.5 h, 10 µM: IGS Sprague-Dawley, pooled liver microsomes, pH 7.4, substrate 10 µM, n = 2, read-out: % Remaining at 30 min; for Intrinsic Clearance: rat liver microsomes, substrate 10 µM, 45 mg protein/g liver. How it is done:
(§2) Pooled liver microsomes from CD1 mouse, IGS Sprague-Dawley rat, Beagle dog, and mixed gender human were used for assays. Incubations (1 mL) consisted of liver microsomes (0.5 mg/mL), NADPH (1 mM) and 100 mM sodium phosphate buffer (pH 7.4). Following pre-incubation (10 min, 37 °C), reactions were initiated by spiking ACN/DMSO (80:20) stock solutions of GE phenolics (5 μL, 10 μM). Samples (100 μL) were withdrawn at 0, 5, 10, 15, 20 and 30 min and quenched with 200 μL acetonitrile containing internal standard. Concomitant NADPH-free control incubations were prepared similarly.
For orientation: Microsomes from liver hold many membrane-bound enzymes, among them those of drug oxidation.

Data set [4] is described as follows: Liver microsomal stability, dog. Conditions: protein 0.5 mg/mL; for remaining at 0.5 h, 10 µM: Beagle, pooled liver microsomes, pH 7.4, substrate 10 µM, n = 2, read-out: % Remaining at 30 min; for Intrinsic Clearance: dog liver microsomes, substrate 10 µM, 45 mg protein/g liver. The data set is classed as in vitro ADME, Beagle dog. The procedure: as §2
Data set [5] is described as follows: Liver microsomal stability, human. Conditions: protein 0.5 mg/mL; for remaining at 0.5 h, 10 µM: both sexes, pooled liver microsomes, pH 7.4, substrate 10 µM, n = 2, read-out: % Remaining at 30 min; for Intrinsic Clearance: human liver microsomes, substrate 10 µM, 45 mg protein/g liver. The data set is classed as in vitro ADME. The procedure: as §2

What is called half-life is the time in which the quantity being followed falls by half. Low readings indicate fast loss, high ones slow loss. As a reminder, the fraction remaining is the share of the starting amount still present when the sample was taken. With `CCCCCCCC(O)CC(=O)CCc1ccc(O)c(OC)c1` (centres unmarked) [8G, 8-gingerol], the figures for the half-life at 10 µM in data set [1] and in data set [2] were > 60 min and > 120 min, respectively. The results for the fraction remaining at 0.5 h, 10 µM in data set [3], in data set [4] and in data set [5] were 9%, 6% and 1%, respectively. Besides, the results for the “Intrinsic Clearance” value in data set [3], in data set [4] and in data set [5] were 7.0 mL/min/g Liver, 14.0 mL/min/g Liver and 8.5 mL/min/g Liver, respectively.
Take `CCCCC/C=C/C(=O)CCc1ccc(O)c(OC)c1` [6S, 6-shogaol]: the half-life at 10 µM is > 60 min in data set [1] and > 120 min in data set [2]. For the same compound, the share remaining at 0.5 h, 10 µM came out at 1% in data set [3], 9% in data set [4] and 1% in data set [5]. Besides, the “Intrinsic Clearance” value is 13.0 mL/min/g Liver in data set [3], 29.9 mL/min/g Liver in data set [4] and 8.4 mL/min/g Liver in data set [5].
For the compound `CCCCCCCCCC(O)CC(=O)CCc1ccc(O)c(OC)c1` (centres unmarked) [10G, 10-gingerol], the half-life at 10 µM in data set [1] was > 60 min; in data set [2], > 120 min. Further, the amount remaining at 0.5 h, 10 µM in data set [3] came to 13%; in data set [4], 45%; in data set [5], 22%. Moreover, the figures for the “Intrinsic Clearance” value in data set [3], in data set [4] and in data set [5] were 5.4 mL/min/g Liver, 5.6 mL/min/g Liver and 6.7 mL/min/g Liver, respectively.
For the compound `CCCCC[C@H](O)CC(=O)CCc1ccc(O)c(OC)c1` [6G, 6-gingerol], the half-life at 10 µM is > 60 min in data set [1] and > 120 min in data set [2]. In addition, the fraction remaining at 0.5 h, 10 µM in data set [3] stood at 50%; in data set [4] it was 67%; in data set [5], 56%. In addition, the “Intrinsic Clearance” value is reported as 11.2 mL/min/g Liver in data set [3], 14.1 mL/min/g Liver in data set [4] and 6.6 mL/min/g Liver in data set [5].
